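Test compounds were applied to cells in 96-well plates for 48 hours at 5 doses. Abbreviation: GI50, concentration required for 50% inhibition of growth.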 Active and inactive are the calls of the source. No stated cut-off is given here; in the data, active = GI50 up to about 1.1 µM and inactive = higher. A value given as a limit tells only on which side of the number the result lay.

What all share (assay): NCI anticancer screen, dose series, 48 h
Test [1] deals with M14.
Test [2] deals with NCI-H460.
Test [3] relates to RPMI-8226.
For test [4], the system named is SK-MEL-2.
In test [5] the test system is UO-31.
Test [6] has as its system PC-3.
For test [7], the system named is HL-60.
In test [8] the test system is MDA-MB-231.
Test [9] relates to U-251.
Test [10] relates to SK-MEL-28.
Test [11] has as its system SN12C.
Test [12] has as its system HCT-15.
In test [13] the test system is HCT-116.
Test [14] has as its system BT-549.
The test system of test [15] is CCRF-CEM.
Test [16] has as its system NCI-H23.
The test system of test [17] is HOP-62.
The test system of test [18] is HCC 2998.
Test [19] has as its system OVCAR-5.
Test [20] has as its system T47D.

As to `Cc1nc(N)c(N2CCN(C(=O)O)CC2)c(O)n1`, the GI50 in test [1], in test [2], in [3], in test [4], in [5] and in [6] was > 100 µM (inactive) each time. The GI50 in [7] is > 100 µM (inactive); in test [8], > 100 µM (inactive); in test [9], > 100 µM (inactive); in [10] it was > 100 µM (inactive); in [11], > 100 µM (inactive); in test [12], over 100 µM. The GI50 in test [13], in test [14], in [15], in test [16], in test [17] and in test [18] was > 100 µM (inactive) each time. Further, the GI50 in test [19] and in [20] was > 100 µM (inactive) throughout.

`OC1C2CCCCN2C[C@@H](O)[C@H]1O` (stereo not given in full): the GI50 in test [1], in [2], in test [3], in test [4], in [5] and in test [6] was > 100 µM (inactive) in each case. Also, the GI50 is > 100 µM (inactive) in test [7]; > 100 µM (inactive) in test [8]; > 100 µM (inactive) in [9]; > 100 µM (inactive) in test [10]; > 100 µM (inactive) in test [11]; over 100 µM in test [12]. The GI50 in test [13], in [14], in [15], in test [16], in [17] and in test [18] was > 100 µM (inactive) each time. Further, the GI50 in test [19] and in [20] was > 100 µM (inactive) each time.

Turning to `C=CCN1C(=O)/C(=C/c2ccc(C)cc2)N=C1SC/C=C/C`, the GI50 was 45.6 µM (inactive) in test [1]; 40.3 µM (inactive) in test [2]; 14.5 µM (inactive) in test [3]; 24.8 µM (inactive) in test [4]; 47.3 µM (inactive) in test [5]; 33 µM (inactive) in test [6]. In addition, the GI50 in test [7] is 15.8 µM (inactive); in test [8] it was 51.5 µM (inactive); in test [9], 27.2 µM (inactive); in test [10], 50.6 µM (inactive); in test [11], 28.1 µM (inactive); in [12], 33.4 µM. Moreover, the GI50 in [13] is 18.8 µM (inactive); in test [14], 30.4 µM (inactive); in [15] it was 26.7 µM (inactive); in [16], 31.1 µM (inactive); in test [17] it was > 100 µM (inactive); in [18], 41.7 µM (inactive). For the same molecule, the GI50 in [19] was 43.6 µM (inactive); in [20], 16.3 µM (inactive).

For the molecule `CCOC(=O)C1=C(C)C(C(=O)OC)/C(=C/c2cccc3cccnc23)C1=O` (stereo not given), the GI50 in [1], in test [2], in test [3], in test [4], in [5] and in test [6] was > 10 µM (inactive) in each case. Also, the GI50 in test [7] is 9.82 µM (inactive); in test [8] it was > 10 µM (inactive); in test [9], > 10 µM (inactive); in [10], > 10 µM (inactive); in test [11] it was > 10 µM (inactive); in test [12], over 10 µM. Further, the GI50 in [13], in test [14], in test [15], in [16], in test [17] and in test [18] was > 10 µM (inactive) in each case. The GI50 in test [19] and in test [20] was > 10 µM (inactive) throughout.

In the case of `O=C1c2c(O)cccc2C(C(=O)CCCCC(=O)C2c3cccc(O)c3C(=O)c3c(O)cccc32)c2cccc(O)c21`, the GI50 in test [1] is 0.897 µM (active); in test [2], 0.403 µM (active); in test [3], 0.457 µM (active); in test [4] it was 0.54 µM (active); in test [5] it was 0.504 µM (active); in test [6], 0.107 µM (active). The GI50 is 0.485 µM (active) in test [7]; 0.426 µM (active) in test [8]; 0.433 µM (active) in test [9]; 0.877 µM (active) in [10]; 0.83 µM (active) in test [11]; 0.662 µM in test [12]. Also, the GI50 was 0.67 µM (active) in test [13]; 0.603 µM (active) in test [14]; 0.652 µM (active) in test [15]; 0.618 µM (active) in [16]; 0.618 µM (active) in [17]; 0.791 µM (active) in test [18]. Moreover, the GI50 in test [19] was 0.528 µM (active); in test [20], 0.442 µM (active).

In the case of `Cc1nc(N)nc(N)c1N1CCN(Cc2ccccc2)CC1`, the GI50 is 13.3 µM (inactive) in test [1]; 5.87 µM (inactive) in [2]; > 39 µM (inactive) in [3]; 64.6 µM (inactive) in [4]; 45.4 µM (inactive) in test [5]; 7.48 µM (inactive) in test [6]. The GI50 in test [7] was 25.1 µM (inactive); in test [8] it was > 86.3 µM (inactive); in test [9], 48.8 µM (inactive); in test [10], > 78.9 µM (inactive); in test [11] it was 56.1 µM (inactive); in test [12] it was 9.42 µM. Further, the GI50 in test [13] is 4.71 µM (inactive); in test [14], > 93.3 µM (inactive); in test [15], 16.5 µM (inactive); in test [16], 17.1 µM (inactive); in test [17], 42.4 µM (inactive); in [18], 25.2 µM (inactive). Besides, the GI50 in test [19] was > 37.8 µM (inactive); in test [20] it was > 100 µM (inactive).
